Earlier results, collected in publication PMC9558053, “Development of a novel high-throughput screen for the identification of new inhibitors of protein S-acylation” (The Journal of Biological Chemistry, 2022).

System: zDHHC20
Parameters: method as in PMID 34467875, PMID 34309372
Conditions: ref [33], [39]; read-out: IC50 for inhibition of zDHHC20 activity in vitro; cited from earlier work

**Q.** For `C=CC(=O)N(CC#N)CCCCCCCCCCCCCC` [N-cyanomethyl-N-myracrylamide], which IC50 is on record?
**A.** 1350 ± 260 nM
